Assay results from patent publication EP0998939A1, “Chalcone plant extracts for use in therapy” (THE SCHOOL OF PHARMACY, UNIVERSITY OF LONDON, priority 1998, dated 2000).

Experiments:
platelet aggregation = details: in rats, compared with aspirin; cited from earlier work
[1] = system: human polymorphonuclear neutrophils; details: properties associated with inflammatory processes; cited from earlier work
[2] = system: swiss 3T3 mouse fibroblast cells; experiment: Cell culture 3[H] thymidine assay, Example 6.2 inhibition of TPA induced proliferation (compound added together with TPA); format: cell-based; details: with 0.5µM TPA
Method: Cells used were swiss 3T3 mouse fibroblast cells • 1. 6 x 24 well plates were required for each experiment. • 2. Cells were removed from the standard tissue culture flask using a 1% solution of EDTA and resuspended in 10 ml of media and pipetted off into a falcon tube. • 3. The cells were then spun for 5 minutes at about 2,000rpm. • 4. The existing media was removed, and the cells again resuspended in 10ml of 10% foetal calf serum (FCS) and vortexed. • 5. The 10ml of suspension was then added to 140ml of media and mixed in a sterile jar. 1ml of the media cell suspension was then placed into each well and the plates incubated until confluent, three days .
• 1. [PCl]Cells were dosed with the test compounds (as specified below) 2 days prior to the addition of 3 [H]thymidine. The cells could only be dosed with a 0.5% solution, 5µl test solution in 1ml cellsuspension i.e. 5µl in 1ml, (TPA - 0.5µM). • 2. 0.5µl of 3[H] thymidine was added per well, therefore 72µl was added to 144µl of media (1%F.C.S.) to dose the corresponding six plates. • 3. 100µl of the media was taken to measure the measure the radioactive dose […], and added to 4ml of scintillation fluid. • 4. The radioactive media was then transferred to sterile specimen tubes and dosed with the test compounds before adding to the cells. • 5. After four hours ofbeing pulsed with radiolabelled thymidine (0.5µCi/ml) the media was removed and washed down the sink. • 6. The cells were washed twice with ice cold phosphate buffered saline (PBS), 0.5ml per well, and incubated for 30 min using ice cold 5% trichloroacetic acid (TCA) ( 1ml) per well at room temperature. • 8. The TCA was then removed and another 1ml of 5% TCA was added for 5 minutes. After the TCA was removed and 0.3NaOH and 0.1% sodium dodecyl sulphate added to each well for 30 minutes (1ml/well). • 9. The contents of each well was added to scintillation vials containing 4ml of scintillation fluid and each sample counted for four minutes using a scintillation counter. Three different assays were carried out using this protocol; • 6.1. Cytotoxicity testing of the compounds. After 48 hours of incubation and the cells were confluent a predetermined quantity of the test compounds was added to the cells. • 6.2. Inhibition of TPA induced proliferation. After 48 hours a preditermined quantity concentration of the test compounds was added to the cells as well as 0.5um of TPA. […] Inhibition of TPA induced proliferation. After 48 hours a predetermined quantity concentration of the test compounds was added to the cells for 24 hours, at 72 hours the media was changed again to contain both test compound and 0.5µM of the TPA. The objective of this experiment was to observe whether the prior incubation with the test compound had any effect on the TPA induced proliferation of the cells.

Female CD1 mice = experiment: Topical chemical erythema: inhibition of TPA induced erythema on the mouse ear; format: in vivo; details: applied to the right ear in 5µl, 20 minutes prior to TPA (0.1µg/5µl)
Method: Ref. Williamson E.M. and Evans F. (1981), Inhibition of erythema induced by proinflammatory esters of 12-deoxyphorbol. Acta Pharmacol. Toxicol.,48, 47-52
Female CD1 mice, weighing approximately 20g were used. • 2. Test plant extracts as produced in Example 1 were applied externally to the right ear of each mouse, at predetermined concentrations in 5µl quantities, 20 minutes prior to the application of the irritant compound 12-O-tetradecanoylphorbal-13-acetate (TPA)(0.1µg/5µl). • 3. A […] response was indicated by redness and inflammation of the ear. • 4. Observations were recorded at 2,3,4,6,7, and 24 hours after the application of TPA. Maximum inflammation caused by TPA alone occurs at 6 hours after the application of TPA.
Erythema of the mouse ear is the simplest experiment to perform as mice have translucent ears in which reddening is easily visible. Quantification is subjective, however the erythema can be described as pronounced, slight or absent. • Isoliquiritigenin ED50 (dose required to inhibit erythema in at least 50% of the animals) 20-50,µg • Licochalcone B ED50 5-10µg • Echinatin ED50 5-10µg

For `O=C(/C=C/c1ccc(O)cc1)c1ccc(O)cc1O` [Isoliquiritigenin, isoliquiritigenin], the “level of inhibition of platelet aggregation” value (platelet aggregation) is listed as “comparable to aspirin”, the “effect on degranulation in human polymorphonuclear neutrophils” value [1] is listed as “had no effect” and the “Percentage Inhibition of 3T3 Swiss Fibroblast Growth, Example 6.2” value (shortened to “Percentage Inhibition”) ([2]; Concentration 0.01 µg) is listed as 6%. The “Percentage Inhibition” value ([2]; Concentration 0.1 µg) was “+4%”, the “Percentage Inhibition” value ([2]; Concentration 1 µg) was 4% and the “Percentage Inhibition” value ([2]; Concentration 10 µg) was 28%. The “Percentage Inhibition” value ([2]; Concentration 20 µg) was 29% and the “ED50 (dose required to inhibit erythema in at least 50% of the animals)” value (Female CD1 mice) was 20 to 50 µg.
